Data from EP0094586A2, “Glycerol derivatives, process for preparing same and pharmaceutical composition containing same” (ONO PHARMACEUTICAL CO., LTD., priority 1982, dated 1983).

Key:
mice = experiment: Acute toxicity by intravenous administration; type: in vivo; conditions: intravenously administered to tail vein in ten mice at the dose of 30 mg/kg
Experimental: On the other hand, it was confirmed that the acute toxicity of all extent of the compounds of the present invention was more than 30 mg/kg by intravenous administration. Therefore, glycerol derivatives of the present invention may be considered to be sufficiently safe and suitable for medical use. For example, the mortality (dead/used) in glycerol derivatives of the present invention, i.e. compounds prepared in Example l(g), l(v), 5(d), 12(b), 12(n), 12(o), 12(s) and 12(x) was 0/10, 0/10, 0/10, 1/10/ 0/10, 0/10, 0/10 and 0/10, respectively, when each glycerol compound was intravenously administered to tail vein in ten mice at the dose of 30 mg/kg.

[1] = molecular target: PAF-induced platelet aggregation (Cavia porcellus, UniProt P21556); experiment: Inhibitory effect on PAF-induced platelet aggregation (method of Born, platelet rich plasma); type: cell-based; conditions: platelet rich plasma from male guinea-pig; PAF (10 nM)-induced aggregation
Sequence of PAF-induced platelet aggregation (P21556 whole entry): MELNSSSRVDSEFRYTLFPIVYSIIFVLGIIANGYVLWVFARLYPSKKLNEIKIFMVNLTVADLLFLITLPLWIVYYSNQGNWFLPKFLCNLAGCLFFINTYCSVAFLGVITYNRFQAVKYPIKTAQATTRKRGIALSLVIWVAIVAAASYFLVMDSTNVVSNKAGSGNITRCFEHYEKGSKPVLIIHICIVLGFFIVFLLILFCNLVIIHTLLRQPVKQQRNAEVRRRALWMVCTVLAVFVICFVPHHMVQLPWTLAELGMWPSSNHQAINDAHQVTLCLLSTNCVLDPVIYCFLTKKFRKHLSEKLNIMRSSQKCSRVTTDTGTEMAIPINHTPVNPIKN
Experimental: (1) Inhibitory effect on PAF-induced platelet aggregation
A mixture of 9 parts of blood obtained from male guinea-pig, and one part of 3.8X trisodium citrate was centrifuged for 10 minutes at 120 x g at room temperature to obtain platelet rich plasma (PRP). Using obtained PRP, PAF (lOnM)-induced aggregation was determined by the method of Born [cf. J. Physiol., 162, 67 (1962)].
(§1) The evaluation is conducted using the concentration of compounds of the present invention required to produce a 50% inhibition of each effect, i.e. IC50.

[2] = molecular target: phospholipase A2 obtained from lung of guinea-pig; experiment: Inhibitory effect on phospholipase A2 (modified method of Shakir, 14C-arachidonyl phosphatidylcholine substrate); type: biochemical; conditions: enzyme from lung of guinea-pig; substrate L-B-[1-14C]-arachidonyl-a'-stearoyl-phosphatidylcholine
Experimental: (2) Inhibitory effect on phospholipase A
The activity of the enzyme was examined by modification of the method of Shakir by using L-B-[1-^14C]- arachidonyl-a'-stearoyl-phosphatidylcholine as substrate and phospholipase A2 obtained from lung of guinea-pig as enzyme [cf. Anal. Biochem., 114, 67 (1981)].
as §1

[3] = molecular target: phospholipase C obtained from lung of guinea-pig; experiment: Inhibitory effect on phospholipase C (method of Rittenhouse-Simmons, 3H-labelled phosphatidyl-inositol substrate); type: biochemical; conditions: enzyme from lung of guinea-pig; substrate 3H-myoinositol labelled phosphatidyl-inositol from rat liver microsome
Experimental: (3) Inhibitory effect on phospholipase C
The activity of the enzyme was examined by the method of Rittenhouse-Simmons by using ^3H-myoinsitol labelled phosphatidyl-inositol biosynthesized in microsome of liver in rat as substrate and phospholipase C obtained from lung of guinea-pig as enzyme [cf. J. Clin. Invest., 63, 580 (1979)].
as §1

CCCCCCCCCCCCCCCCOCC(COCCCC[N+](C)(C)C)OC(=O)c1ccccc1 (racemic) [12 (n), (2RS)-l-0-hexadecyl-2-0-benzoyl-3-0-[4-(N,N,N-trimethylammonio)-butyl]glycerol halide]
mortality (dead/used) (mice): 0/10

CCCCCCCCCCCCCCCCSCC(COCCCC[N+](C)(C)C)OCc1ccccc1 (racemic) [12 (b), (2RS)-1-hexadecylthio-2-0-benzyl-3-0-[4-(N,N,N-trimethylammanio)-butyl]-2,3-propanediol halide]
mortality (dead/used) (mice): 1/10

CCCCCCCCCCCCCCCCOCC(COCCCC[N+](C)(C)C)OC(=O)NC (racemic) [12 (o), (2RS)-1-0-hexadecyl-2-0-(N-methylcarbaraoyl)-3-0-[4-(N,N,N-trimethylammonio)butyl]glycerol halide]
mortality (dead/used) (mice): 0/10

(2RS)-1-0-hexadecyl-2-[ethoxy(thiocarbonyl)thio]-3-0-[4-(N,N,N-trimethylammonio)butyl]-1,3-propanediol halide [12 (x)]
IC50 [1]: 3.8 µM
IC50 [2]: 240 µM
IC50 [3]: 200 µM
mortality (dead/used) (mice): 0/10

CCCCCCCCCCCCCCCCOCC(COCCCC[N+](C)(C)C)SCC (racemic) [12 (s), (2RS)-l-0-hexadecyl-2-ethylthio-3-0-[4-(N,N,N-trimethylammonio)-butyl]-1,3-propanediol halide]
mortality (dead/used) (mice): 0/10

CCCCCCCCCCCCCCCCOCC(COC(=O)CCC[N+](C)(C)C)OCc1ccccc1 (racemic) [1 (v), (2RS)-1-0-hexadecyl-2-0-benzyl-3-0-[4-(N,N,N-trimethylammonio)-butyryl]glycerol halide]
mortality (dead/used) (mice): 0/10

CCCCCCCCCCCCCCCCOCC(O)COCCCC[N+](C)(C)C (racemic) [5 (d), (2RS)-1-0-hexadecyl-3-0-[4-(N,N,N-trimethylammonio)butyl]glycerol halide]
IC50 [2]: 240 µM
IC50 [3]: 660 µM
mortality (dead/used) (mice): 0/10

CCCCCCCCCCCCCCCCOCC(COCCCC[N+](C)(C)C)OCc1ccccc1 (racemic) [1 (g), (2RS)-l-0-hexadecyl-2-0-benzyl-3-0-[4-(N,N,N-trimethylammonio)butyl]glycerol chloride]
IC50 [2]: 130 µM
IC50 [3]: 180 µM
mortality (dead/used) (mice): 0/10
